Results on 20 compounds are retold here after US9938269B2, “Inhibitor compounds of phosphodiesterase type 10A” (ABBVIE INC., priority 2011, dated 2018).

The term IC50 denotes the concentration that inhibits the measured activity by half. A lower IC50 goes with greater potency in that assay. What is called microsomal CLint is the capacity of the preparation to metabolise the compound, expressed as a volume cleared per time. A low value points to greater metabolic stability.

Where a name gives a salt, the structure may show the parent alone.

One data set concerns the target T1, PDE10A (human) (Homo sapiens, UniProt Q9Y233).
T1 construct: purchased BPS Bioscience
The data set is described as follows: Measurement of PDE activity (HTRF cAMP kit), human PDE10A. The data set is classed as biochemical. The note with it: PDE enzymatic reaction, substrate 20 nM for PDE10, 60 minutes at 29 C. An outline of the steps: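 Recombinant human PDE10A (10–250 pM range across PDEs) with 20 nM cAMP substrate in 20 mM Tris-HCl pH 7.5, 10 mM MgCl2, 0.1% BSA, compound pre-mixed with enzyme. Ran 60 min at 29 °C. Remaining cAMP read by HTRF, converted to % of uninhibited activity, and IC50 fitted.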
On the technique in general: Time-resolved FRET reads energy transfer from a long-lived donor to a nearby acceptor.

Data set [1] in a line: Determination of the microsomal half-life, rat liver microsomes. The note with it: rat, liver microsomes, pH 7.4.
Protocol: (§1) The test substances were incubated in a concentration of 0.5 μM as follows:
(§2) 0.5 μM test substance are preincubated together with liver microsomes from different species (from rat, human or other species) (0.25 mg of microsomal protein/10 in 0.05 M potassium phosphate buffer of pH 7.4 in microtiter plates at 37° C. for 5 min. The reaction is started by adding NADPH (1 mg/mL). After 0, 5, 10, 15, 20 and 30 min., 50 μl aliquots are removed, and the reaction is immediately stopped and cooled with the same volume of acetonitrile. The samples are frozen until analyzed. The remaining concentration of undegraded test substance is determined by MSMS. The half-life (T½) is determined from the gradient of the signal of test substance/unit time plot, it being possible to calculate the half-life of the test substance, assuming first order kinetics, from the decrease in the concentration of the compound with time. The microsomal clearance (mCl) is calculated from mCl=ln 2/T½/(content of microsomal protein in mg/ml)×1000 [ml/min/mg]
Data set [2] can be described thus: Determination of the microsomal half-life, human liver microsomes. The note with it: human, liver microsomes, pH 7.4. (Microsomes from liver hold many membrane-bound enzymes, among them those of drug oxidation.)
Protocol: as §1, §2

T1 sequence (Q9Y233 whole entry): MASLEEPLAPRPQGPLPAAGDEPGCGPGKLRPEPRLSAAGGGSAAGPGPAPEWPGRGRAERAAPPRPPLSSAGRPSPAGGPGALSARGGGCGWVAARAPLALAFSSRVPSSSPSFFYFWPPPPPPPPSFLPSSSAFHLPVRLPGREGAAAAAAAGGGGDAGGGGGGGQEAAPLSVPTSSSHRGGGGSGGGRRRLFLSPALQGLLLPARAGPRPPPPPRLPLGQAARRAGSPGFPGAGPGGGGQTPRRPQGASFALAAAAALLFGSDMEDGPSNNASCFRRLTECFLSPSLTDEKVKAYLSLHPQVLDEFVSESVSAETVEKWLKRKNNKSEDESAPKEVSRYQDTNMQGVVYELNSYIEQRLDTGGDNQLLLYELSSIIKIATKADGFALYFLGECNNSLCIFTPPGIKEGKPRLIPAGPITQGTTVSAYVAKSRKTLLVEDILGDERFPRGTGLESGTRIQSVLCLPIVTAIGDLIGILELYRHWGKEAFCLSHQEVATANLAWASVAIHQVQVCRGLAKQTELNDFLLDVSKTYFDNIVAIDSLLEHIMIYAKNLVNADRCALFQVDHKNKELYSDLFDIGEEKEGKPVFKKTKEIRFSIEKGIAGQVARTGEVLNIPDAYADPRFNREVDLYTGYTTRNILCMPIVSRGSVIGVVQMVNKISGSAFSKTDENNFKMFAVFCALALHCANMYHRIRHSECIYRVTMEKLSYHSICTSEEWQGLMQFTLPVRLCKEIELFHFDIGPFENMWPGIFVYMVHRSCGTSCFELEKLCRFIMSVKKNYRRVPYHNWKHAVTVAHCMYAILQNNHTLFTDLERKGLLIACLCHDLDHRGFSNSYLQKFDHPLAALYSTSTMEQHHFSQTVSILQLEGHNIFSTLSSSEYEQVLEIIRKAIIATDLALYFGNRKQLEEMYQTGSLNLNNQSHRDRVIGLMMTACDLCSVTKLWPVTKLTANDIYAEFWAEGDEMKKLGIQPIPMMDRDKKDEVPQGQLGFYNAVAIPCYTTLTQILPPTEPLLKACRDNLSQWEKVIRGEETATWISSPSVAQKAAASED

On to `O=C1c2c(cccc2N2CCOCC2)CN1CCc1ccc2sccc2n1` [Example 556, 7-Morpholino-2-(2-(thieno[3,2-b]pyridin-5-yl)ethyl)isoindolin-1-one], for which the IC50 against PDE10A (human) was in the range of 100 to 200 nM. The microsomal CLint at 0.5 μM in data set [1] and in data set [2] was 100 to 220 µL/min/mg in each case.

In turn, `COc1ccc(N2CCN(C)CC2)c2c1CN(CCc1ccc3ccccc3n1)C2=O` [Example 261, 4-Methoxy-7-(4-methyl-piperazin-1-yl)-2-(2-quinolin-2-yl-ethyl)-2,3-dihydro-isoindol-1-one di-trifluoroacetate] yielded an IC50 at PDE10A (human) of less than 100 nM. The microsomal CLint at 0.5 μM in data set [1] was greater than 220 µL/min/mg; in data set [2], less than 100 µL/min/mg.

Take `CCn1c(CCN2Cc3cccc(N4CCOCC4)c3C2=O)nc2ccccc21` [Example 278, 2-[2-(1-Ethyl-1H-benzoimidazol-2-yl)-ethyl]-7-morpholin-4-yl-2,3-dihydro-isoindol-1-one]: the IC50 against PDE10A (human) was less than 100 nM. Also, the microsomal CLint at 0.5 μM in data set [1] and in data set [2] was 100 to 220 µL/min/mg in each case.

`O=C1c2c(cccc2N2C[C@@H]3CCCNC[C@H]3C2)CN1CCc1ccc2ccccc2n1` [Example 317, 7-(3aS,8aR)-Octahydro-pyrrolo[3,4-c]azepin-2-yl-2-(2-quinolin-2-yl-ethyl)-2,3-dihydro-isoindol-1-one trifluoroacetate] displayed an IC50 at PDE10A (human) of 200 to 500 nM. Moreover, the microsomal CLint at 0.5 μM in data set [1] is less than 100 µL/min/mg; in data set [2], 100 to 220 µL/min/mg.

As for `Cc1nc(CCN2Cc3nccc(N4CCOCC4)c3C2=O)sc1C` [compound 519, 6-[2-(4,5-Dimethylthiazol-2-yl)ethyl]-4-morpholino-7H-pyrrolo[3,4-b]pyridin-5-one], the IC50 at PDE10A (human) is less than 100 nM. The results for the microsomal CLint at 0.5 μM in data set [1] and in data set [2] were greater than 220 µL/min/mg and less than 100 µL/min/mg, respectively.

In turn, `O=C1c2c(-c3cncnc3)ccnc2CN1CCc1cn2ccccc2n1` [Example 256, 6-(2-Imidazo[1,2-a]pyridin-2-yl-ethyl)-4-pyrimidin-5-yl-6,7-dihydro-pyrrolo[3,4-b]pyridin-5-one] displayed an IC50 on PDE10A (human) of less than 100 nM. Further, the microsomal CLint at 0.5 μM in data set [1] and in data set [2] was less than 100 µL/min/mg in each case.

Compound `O=C1c2c(cccc2-c2ccncc2)CN1CCc1ccc2sccc2n1` [Example 19, 7-Pyridin-4-yl-2-(2-thieno[3,2-b]pyridin-5-yl-ethyl)-2,3-dihydro-isoindol-1-one] came in with an IC50 at PDE10A (human) of less than 100 nM. For the same compound, the microsomal CLint at 0.5 μM in data set [1] is 100 to 220 µL/min/mg; in data set [2] it was greater than 220 µL/min/mg.

Turning to `Cn1nccc1-c1ccnc2c1C(=O)N(CCc1ccc3ccccc3n1)C2` [Example 162, 4-(2-Methyl-2H-pyrazol-3-yl)-6-(2-quinolin-2-yl-ethyl)-6,7-dihydro-pyrrolo[3,4-b]pyridin-5-one hydrochloride], the IC50 on PDE10A (human) is less than 100 nM. The microsomal CLint at 0.5 μM in data set [1] and in data set [2] was less than 100 µL/min/mg in each case.

`Cc1ccc(CCN2Cc3nccc(N4CCOCC4)c3C2=O)nc1` [compound 551, 6-[2-(5-Methyl-2-pyridyl)ethyl]-4-morpholino-7H-pyrrolo[3,4-b]pyridin-5-one] yielded an IC50 on PDE10A (human) of less than 100 nM. The microsomal CLint at 0.5 μM in data set [1] and in data set [2] was less than 100 µL/min/mg in each case.

For `Cn1nccc1-c1cccc2c1C(=O)N(CCc1cn3ccccc3n1)C2` [Example 239, 2-(2-Imidazo[1,2-a]pyridin-2-yl-ethyl)-7-(2-methyl-2H-pyrazol-3-yl)-2,3-dihydro-isoindol-1-one], the half-inhibitory concentration (IC50) against PDE10A (human) lay in the range of 100 to 200 nM. Moreover, the microsomal CLint at 0.5 μM in data set [1] and in data set [2] was less than 100 µL/min/mg each time.

`O=C1c2c(N3CCOCC3)ccnc2CN1CCc1nc2ccccn2n1` [Example 227, 4-Morpholin-4-yl-6-(2-[1,2,4]triazolo[1,5-a]pyridin-2-yl-ethyl)-6,7-dihydro-pyrrolo[3,4-b]pyridin-5-one] had an IC50 against PDE10A (human) of less than 100 nM. Further, the microsomal CLint at 0.5 μM in data set [1] and in data set [2] was less than 100 µL/min/mg throughout.

For `O=C1c2c(cccc2-c2cncnc2)CN1CCc1ccc2ccccc2n1` [Example 58, 7-Pyrimidin-5-yl-2-(2-quinolin-2-yl-ethyl)-2,3-dihydro-isoindol-1-one], the IC50 against PDE10A (human) was less than 100 nM. Further, the values for the microsomal CLint at 0.5 μM in data set [1] and in data set [2] were less than 100 µL/min/mg and greater than 220 µL/min/mg, respectively.

At PDE10A (human), `Cc1cccc(CCN2Cc3nccc(N4CCOCC4)c3C2=O)n1` [compound 466, 6-[2-(6-Methyl-2-pyridyl)ethyl]-4-morpholino-7H-pyrrolo[3,4-b]pyridin-5-one] gave an IC50 of 100 to 200 nM. Besides, the intrinsic clearance (microsomal CLint) at 0.5 μM in data set [1] was greater than 220 µL/min/mg; in data set [2], less than 100 µL/min/mg.

The compound `O=C1c2c(N3CCC(CF)C3)ccnc2CN1CCc1cn2ccccc2n1` (stereo not drawn) [compound 384, 4-[3-(Fluoromethyl)pyrrolidin-1-yl]-6-(2-imidazo[1,2-a]pyridin-2-ylethyl)-7H-pyrrolo[3,4-b]pyridin-5-one] came in with a half-inhibitory concentration (IC50) at PDE10A (human) of less than 100 nM. In addition, the microsomal CLint at 0.5 μM in data set [1] is 100 to 220 µL/min/mg; in data set [2], less than 100 µL/min/mg.

Take `COc1ccc(-c2cc[nH]n2)c2c1C(=O)N(CCc1cn3ccccc3n1)C2` [compound 454, 2-(2-Imidazo[1,2-a]pyridin-2-yl-ethyl)-7-methoxy-4-(1H-pyrazol-3-yl)-2,3-dihydro-isoindol-1-one]: the IC50 against PDE10A (human) lay in the range of 100 to 200 nM. Besides, the microsomal CLint at 0.5 μM in data set [1] and in data set [2] was less than 100 µL/min/mg throughout.

`O=C1c2c(-c3ccncc3)cccc2C(F)(F)N1CCc1ccc2ccccc2n1` [Example 4, 3,3-Difluoro-7-pyridin-4-yl-2-(2-quinolin-2-yl-ethyl)-2,3-dihydro-isoindol-1-one] registered an IC50 at PDE10A (human) of less than 100 nM. For the same compound, the microsomal CLint at 0.5 μM in data set [1] was greater than 220 µL/min/mg; in data set [2], 100 to 220 µL/min/mg.

For `COc1ccc(-c2cncnc2)c2c1CN(CCc1cn3ccccc3n1)C2=O` [Example 217, 2-(2-Imidazo[1,2-a]pyridin-2-yl-ethyl)-4-methoxy-7-pyrimidin-5-yl-2,3-dihydro-isoindol-1-one trifluoroacetate], the IC50 against PDE10A (human) is less than 100 nM. Also, the microsomal CLint at 0.5 μM in data set [1] and in data set [2] was less than 100 µL/min/mg each time.

Turning to `COc1ccnc2c1C(=O)N(CCc1ccc3ccccc3n1)C2` [compound 528, 4-Methoxy-6-(2-quinolin-2-yl-ethyl)-6,7-dihydro-pyrrolo[3,4-b]pyridin-5-one], at PDE10A (human), the IC50 is less than 100 nM. In addition, the microsomal CLint at 0.5 μM in data set [1] and in data set [2] was less than 100 µL/min/mg in each case.

In turn, `O=C1c2c(cccc2-c2cn[nH]c2)CN1CCc1cn2ccccc2n1` [Example 242, 2-(2-Imidazo[1,2-a]pyridin-2-yl-ethyl)-7-(1H-pyrazol-4-yl)-2,3-dihydro-isoindol-1-one] showed an IC50 against PDE10A (human) of 100 to 200 nM. In addition, the microsomal CLint at 0.5 μM in data set [1] was 100 to 220 µL/min/mg; in data set [2], less than 100 µL/min/mg.

On PDE10A (human), `O=C1c2c(N3CCOCC3)ccnc2CN1CCc1ccc2ncccc2n1` [compound 514, 4-Morpholino-6-[2-(1,5-naphthyridin-2-yl)ethyl]-7H-pyrrolo[3,4-b]pyridin-5-one] had a half-maximal inhibitory concentration (IC50) of less than 100 nM. The microsomal CLint at 0.5 μM in data set [1] and in data set [2] was less than 100 µL/min/mg each time.
